Assay results taken from article PMC10447463, “Data-mining unveils structure–property–activity correlation of viral infectivity enhancing self-assembling peptides” (Nature Communications, 2023).
Where two headings read alike, the source gives them in different places.

How the values were obtained:
[1] = system: HIV-1 infection of TZM-bl cells; test: HIV-1 infectivity enhancement assay, β-galactosidase luminescence; assay type: cell-based; settings: for Rel-EFC: infection relative to EF-C (QCKIKQIINMWQ = 1); for Log10 Infection Rel EFC: log10 of infection relative to EF-C; for Log Infectivity: Log10 infection relative to EF-C, asymmetric std dev errors; for Log10 Infection Rel EF-C: HIV-1 infection of TZM-bl cells; for Abs. Inf.: β-galactosidase luminescence; for Log10 Inf. rel. to EF-C: log10 of HIV-1 infection of TZM-bl cells relative to EF-C (EF-C = 0); for Log10 of Rel to EFC (Feb2021): Log10 of infection relative to EF-C, all peptides of FigS16
[2] = assay type: physicochemical; settings: for ThT Cat. / ThT-Fluorescence (categorical): ThT-active if fluorescence at least twice the control
Outline: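 Preformed peptide fibrils (1 mg/mL) mixed with 50 µM ThT in PBS, 15 min at RT, fluorescence ex 440/em 488 nm versus PBS blank, triplicates. Zeta potential: peptides at 1 mg/mL in PBS pH 7.4, aged 1 d at RT, diluted in 1 mM KCl, Smoluchowski from electrophoretic mobility.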

[3] = Conversion rate (CR) assay with fluorescamine; assay type: physicochemical; set-up: key to CR: % = 100−100×filtrate/original fluorescence intensity
Description: For ATR FT–IR spectroscopy measurements, 200 µL of the respective 1 mg/mL PNF solution was lyophilized and the resulting powder used for measurement. All spectra were recorded on a Bruker Tensor 27 spectrometer with a diamond crystal as ATR element (PIKE MiracleTM, spectral resolution 2 cm^-1). Every sample was measured with 64 scans. Data were analyzed with OriginLab software and calculation of β–sheet content was conducted according to a previous report. TEM. For TEM measurements 5 µL of PNF fibrils (1 mg/mL) were placed on copper grids coated with carbon and formvar layer (300 mesh, Plano GmbH). After 10 min incubation time, the grids were staining with 4% uranyl acetate solution for 2.5 min and washed with water. Measurements were performed on a Jeol 1400 electron microscope with 120 kV acceleration voltage. CR Assay. For the determination of the amount of peptide monomer converting into nanostructures the amine reactive dye fluorescamine was used analogous to a previous reported protocol. Briefly, 100 µL of the preformed PNF solution was centrifuged in a Vivaspin 500 tube (3 kDa MWCO) to separate fibers from free peptide monomer (16200 x g, 4 °C, 45 min). The filtrate and 100 μL of the non-filtered PNF sample were lyophilized and dissolved in 30 μL DMSO. 10 μL of the filtrate and non-filtered DMSO samples were submitted in a black UV Star® 384 microliter well–plates (Greiner bio–one) and 3 μL of the fluorescamine solution (10 mg/mL, DMSO) was added to measure the fluorescence enhancement. After 20 min of incubation at RT, fluorescence was recorded on an Infinite® M1000 PRO microplate reader (Tecan) at λem = 470 nm upon excitation at λex = 365 nm with 10 nm bandwidths and multiple reads per well (3×3). Measurements were repeated in triplicates and averaged with standard deviation. All values were calculated as n-fold fluorescence enhancement (DMSO only as a reference was set to 1). The conversion rate CR was defined according to the equation Eq. (3).3 CR=100−100×fluorescenceintensityfiltrate/fluorescenceintensityoriginal[%]

[4] = Fig. S7 panel A (plotted against β-sheet content), TZM-bl cells
[5] = Fig. S7 panel B (plotted against CR), rounded to two decimals, TZM-bl cells
[6] = Log10 of infection rate relative to EF-C, Figure 3A source data
[7] = infection rate relative to EF-C, log10, data of Figure 2D
[8] = infection rate relative to EF-C, log10, source data of Figure 2C
[9] = absolute infection signal, HIV-1 on TZM-bl cells
[10] = Fig. S7 panel B, conversion rate, fluorescamine assay
[11] = conversion rate, fluorescamine assay

Substance | Rel-EFC ([1]; 1.3 µM peptide) | Log10 Infection Rel EFC ([1]; 1.3 µM peptide) | Log Infectivity [1, 4] | Log Infectivity [1, 5] | Log10 Infection Rel EF-C [1, 6] | Log10 Infection Rel EF-C [1, 7] | Log10 Infection Rel EF-C [1, 8] | Abs. Inf. [1, 9] | Log10 Inf. rel. to EF-C [1] | Tht category (> 2 to blank = +) ([2]; Fig S10 panel D) | ThT Cat. ([2]; Fig S10 panel E) | Tht category (> 2 to blank = +) ([2]; FigS12 panel A) | ThT Cat, ([2]; FigS12 panel B) | ThT Cat, ([2]; ThT category, 1 if Rel. ThT >2) | ThT Cat. ([2]; ThT category, 1 if Rel. ThT >2) | ThT Cat. / ThT-Fluorescence (categorical) [2] | CR / % [3, 10] [%] | CR [3, 11] | Log10 of Rel to EFC (Feb2021) [1] | further results
CKAKAQANMWQ | 0,04 | -1,36 | -1.359 | -1.36 | -1.36 | -1.359 | -1.359 | 600 | -1.359 | 0 (ThT-inactive (N-Fold <2)) | 0 (ThT-inactive (N-Fold <2)) | 0 (ThT-inactive (N-Fold <2)) | 0 (ThT-inactive (N-Fold <2)) | 0 (ThT-inactive (N-Fold <2)) | 0 (ThT-inactive (N-Fold <2)) | 0 (ThT-inactive (N-Fold <2)) | 92.5 | 92.45 |  | Inf. rel. EF-C ([1]; HIV-1 infection relative to EF-C, Fig 23 plot, panels A and B, mean of 3 values): 0.02574; Inf. rel. EF-C ([1]; HIV-1 infection relative to EF-C, Fig 23 plot, single data point, replicate 1): 0.02321; Inf. rel. EF-C ([1]; HIV-1 infection relative to EF-C, Fig 23 plot, single data point, replicate 2): 0.03098; Inf. rel. EF-C ([1]; HIV-1 infection relative to EF-C, Fig 23 plot, single data point, replicate 3): 0.02305; Abs. Inf. / RLU s-1 ([1]; absolute infection rate, peptide 1.3 µM on cells, virus preincubated 10 min with fibrils, read 3 days post infection, mean of triplicate): 600 RLU s-1; Inf. rel. EF-C ([1]; n-fold infection vs virus only, relative to that of EF-C, 1.3 µM peptide): 0.04; Rel. ThT ([2]; n-fold ThT fluorescence vs control (PBS, 10% DMSO), 4 µL 1 mg/mL fibrils + 20 µL 50 µM ThT, 15 min RT, ex 440 / em 488 nm, triplicate): 1.9; CR / % ([3]; conversion of monomer to nanostructures, 3 kDa MWCO filtration, fluorescamine, ex 365 / em 470 nm, triplicate): 92%
CKFKFQFW | 0,88 | -0,06 | -0.05512 | -0.06 | -0.06 | -0.05512 | -0.05512 |  |  | 0 (ThT-inactive (N-Fold <2)) | 0 (ThT-inactive (N-Fold <2)) |  |  | 0 (ThT-inactive (N-Fold <2)) | 0 (ThT-inactive (N-Fold <2)) | 0 (ThT-inactive (N-Fold <2)) | 98.7 | 98.71 | -0.06 | Abs. Inf. ([1]; absolute HIV-1 infection signal, TZM-bl cells): 17862.22222
CKFKQFF | 0,01 | -2,17 | -2.171 | -2.17 | -2.17 | -2.171 | -2.171 | 260 | -2.171 | 0 (ThT-inactive (N-Fold <2)) | 0 (ThT-inactive (N-Fold <2)) | 0 (ThT-inactive (N-Fold <2)) | 0 (ThT-inactive (N-Fold <2)) | 0 (ThT-inactive (N-Fold <2)) | 0 (ThT-inactive (N-Fold <2)) | 0 (ThT-inactive (N-Fold <2)) | 90 | 90.05 |  | Abs. Infection at 0.26 µM ([1]; peptide 0.26 µM, mean of n = 3, Figure 4A): 366.7; Infect 1 0.26 µM ([1]; peptide 0.26 µM, replicate 1, absolute infection signal, Figure 4A): 260; Infect 2 0.26 µM ([1]; peptide 0.26 µM, replicate 2, absolute infection signal, Figure 4A): 50; Infect 3 0.26 µM ([1]; peptide 0.26 µM, replicate 3, absolute infection signal, Figure 4A): 790; Abs. Infection at 1.3 µM ([1]; peptide 1.3 µM, mean of n = 3, Figure 4A): 260; Infect 1 .3 µM ([1]; peptide 1.3 µM, replicate 1, absolute infection signal, Figure 4A): 440; Infect 2 1.3µM ([1]; peptide 1.3 µM, replicate 2, absolute infection signal, Figure 4A): 160; Infect 3 1.3 µM ([1]; peptide 1.3 µM, replicate 3, absolute infection signal, Figure 4A): 180
CKFKQFFNMWQ | 0,61 | -0,21 | -0.2148 | -0.21 | -0.21 | -0.2148 | -0.2148 | 23486.66667 | -0.2148 | 1 (ThT. Cat is 1, if Rel. ThT >2) | 1 (ThT. Cat is 1, if Rel. ThT >2) |  |  | 1 (ThT. Cat is 1, if Rel. ThT >2) | 1 (ThT. Cat is 1, if Rel. ThT >2) | 1 (ThT. Cat is 1, if Rel. ThT >2) | 98.7 | 98.72 | -0.21 | 
